One block for each molecule: values may come before it.
How the values were obtained:
Kidney [1] = experiment: Biodistribution in mouse S180 cells xenografted Kunming mouse kidney at 370 kBq/0.1 mL, iv after 15 mins by gamma counting; format: ADME, organism-based, CCRF S-180; conditions: in vivo, 0.25 h
Kidney [2] = experiment: Biodistribution in mouse S180 cells xenografted Kunming mouse kidney at 370 kBq/0.1 mL, iv after 60 mins by gamma counting; format: ADME, organism-based, CCRF S-180; conditions: in vivo, 1 h
Spleen [3] = experiment: Biodistribution in mouse S180 cells xenografted Kunming mouse spleen at 370 kBq/0.1 mL, iv after 120 mins by gamma counting; format: ADME, organism-based, CCRF S-180; conditions: in vivo, 2 h
Heart [4] = experiment: Biodistribution in mouse S180 cells xenografted Kunming mouse heart at 370 kBq/0.1 mL, iv after 30 mins by gamma counting; format: ADME, organism-based, CCRF S-180; conditions: in vivo, 0.5 h
Nucleic Acid [5] = experiment: Ratio of drug level in tumor to brain in mouse S180 cells xenografted Kunming mouse at 370 kBq/0.1 mL, iv after 15 mins by gamma counting; format: ADME, organism-based, CCRF S-180; conditions: in vivo, 0.25 h
Blood [6] = experiment: Biodistribution in mouse S180 cells xenografted Kunming mouse blood at 370 kBq/0.1 mL, iv after 120 mins by gamma counting; format: ADME, organism-based, CCRF S-180; conditions: in vivo, 2 h
Nucleic Acid [7] = experiment: Ratio of drug level in tumor to brain in mouse S180 cells xenografted Kunming mouse at 370 kBq/0.1 mL, iv after 60 mins by gamma counting; format: ADME, organism-based, CCRF S-180; conditions: in vivo, 1 h
Mus musculus [8] = experiment: Biodistribution in mouse S180 cells xenografted Kunming mouse tumor at 370 kBq/0.1 mL, iv after 5 mins by gamma counting; format: ADME, organism-based, Neoplasm, CCRF S-180; conditions: in vivo
Heart [9] = experiment: Biodistribution in mouse S180 cells xenografted Kunming mouse heart at 370 kBq/0.1 mL, iv after 120 mins by gamma counting; format: ADME, organism-based, CCRF S-180; conditions: in vivo, 2 h
CCRF S-180 = experiment: Cellular uptake in mouse S180 cells after 60 mins; format: ADME, cell-based; conditions: ccrf s-180, 1 h
Muscle tissue [10] = experiment: Biodistribution in mouse S180 cells xenografted Kunming mouse muscle at 370 kBq/0.1 mL, iv after 30 mins by gamma counting; format: ADME, organism-based, CCRF S-180; conditions: in vivo, 0.5 h
Nucleic Acid [11] = experiment: Ratio of drug level in tumor to muscle in mouse S180 cells xenografted Kunming mouse at 370 kBq/0.1 mL, iv after 120 mins by gamma counting; format: ADME, organism-based, CCRF S-180; conditions: in vivo, 2 h
Liver [12] = experiment: Biodistribution in mouse S180 cells xenografted Kunming mouse liver at 370 kBq/0.1 mL, iv after 15 mins by gamma counting; format: ADME, organism-based, CCRF S-180; conditions: in vivo, 0.25 h
Lung [13] = experiment: Biodistribution in mouse S180 cells xenografted Kunming mouse lung at 370 kBq/0.1 mL, iv after 15 mins by gamma counting; format: ADME, organism-based, CCRF S-180; conditions: in vivo, 0.25 h
Blood [14] = experiment: Biodistribution in mouse S180 cells xenografted Kunming mouse blood at 370 kBq/0.1 mL, iv after 60 mins by gamma counting; format: ADME, organism-based, CCRF S-180; conditions: in vivo, 1 h
Lung [15] = experiment: Biodistribution in mouse S180 cells xenografted Kunming mouse lung at 370 kBq/0.1 mL, iv after 5 mins by gamma counting; format: ADME, organism-based, CCRF S-180; conditions: in vivo
Spleen [16] = experiment: Biodistribution in mouse S180 cells xenografted Kunming mouse spleen at 370 kBq/0.1 mL, iv after 15 mins by gamma counting; format: ADME, organism-based, CCRF S-180; conditions: in vivo, 0.25 h
Nucleic Acid [17] = experiment: Ratio of drug level in tumor to muscle in mouse S180 cells xenografted Kunming mouse at 370 kBq/0.1 mL, iv after 60 mins by gamma counting; format: ADME, organism-based, CCRF S-180; conditions: in vivo, 1 h
Nucleic Acid [18] = experiment: Ratio of drug level in tumor to muscle in mouse S180 cells xenografted Kunming mouse at 370 kBq/0.1 mL, iv after 15 mins by gamma counting; format: ADME, organism-based, CCRF S-180; conditions: in vivo, 0.25 h
Mus musculus [19] = experiment: Biodistribution in mouse S180 cells xenografted Kunming mouse tumor at 370 kBq/0.1 mL, iv after 60 mins by gamma counting; format: ADME, organism-based, Neoplasm, CCRF S-180; conditions: in vivo, 1 h
Nucleic Acid [20] = experiment: Ratio of drug level in tumor to blood in mouse S180 cells xenografted Kunming mouse at 370 kBq/0.1 mL, iv after 5 mins by gamma counting; format: ADME, organism-based, CCRF S-180; conditions: tumour
Nucleic Acid [21] = experiment: Ratio of drug level in tumor to blood in mouse S180 cells xenografted Kunming mouse at 370 kBq/0.1 mL, iv after 120 mins by gamma counting; format: ADME, organism-based, CCRF S-180; conditions: tumour, 2 h
Muscle tissue [22] = experiment: Biodistribution in mouse S180 cells xenografted Kunming mouse muscle at 370 kBq/0.1 mL, iv after 15 mins by gamma counting; format: ADME, organism-based, CCRF S-180; conditions: in vivo, 0.25 h
Mus musculus [23] = experiment: Biodistribution in mouse S180 cells xenografted Kunming mouse tumor at 370 kBq/0.1 mL, iv after 15 mins by gamma counting; format: ADME, organism-based, Neoplasm, CCRF S-180; conditions: in vivo, 0.25 h
Nucleic Acid [24] = experiment: Ratio of drug level in tumor to blood in mouse S180 cells xenografted Kunming mouse at 370 kBq/0.1 mL, iv after 30 mins by gamma counting; format: ADME, organism-based, CCRF S-180; conditions: tumour, 0.5 h
Liver [25] = experiment: Biodistribution in mouse S180 cells xenografted Kunming mouse liver at 370 kBq/0.1 mL, iv after 120 mins by gamma counting; format: ADME, organism-based, CCRF S-180; conditions: in vivo, 2 h
Nucleic Acid [26] = experiment: Ratio of drug level in tumor to brain in mouse S180 cells xenografted Kunming mouse at 370 kBq/0.1 mL, iv after 5 mins by gamma counting; format: ADME, organism-based, CCRF S-180; conditions: in vivo
Lung [27] = experiment: Biodistribution in mouse S180 cells xenografted Kunming mouse lung at 370 kBq/0.1 mL, iv after 30 mins by gamma counting; format: ADME, organism-based, CCRF S-180; conditions: in vivo, 0.5 h
Heart [28] = experiment: Biodistribution in mouse S180 cells xenografted Kunming mouse heart at 370 kBq/0.1 mL, iv after 15 mins by gamma counting; format: ADME, organism-based, CCRF S-180; conditions: in vivo, 0.25 h
[29] = Partition coefficient, log P of the compound; format: physicochemical; conditions: octanol/water
Heart [30] = experiment: Biodistribution in mouse S180 cells xenografted Kunming mouse heart at 370 kBq/0.1 mL, iv after 5 mins by gamma counting; format: ADME, organism-based, CCRF S-180; conditions: in vivo
Muscle tissue [31] = experiment: Biodistribution in mouse S180 cells xenografted Kunming mouse muscle at 370 kBq/0.1 mL, iv after 60 mins by gamma counting; format: ADME, organism-based, CCRF S-180; conditions: in vivo, 1 h
Nucleic Acid [32] = experiment: Ratio of drug level in tumor to blood in mouse S180 cells xenografted Kunming mouse at 370 kBq/0.1 mL, iv after 15 mins by gamma counting; format: ADME, organism-based, CCRF S-180; conditions: tumour, 0.25 h
Liver [33] = experiment: Biodistribution in mouse S180 cells xenografted Kunming mouse liver at 370 kBq/0.1 mL, iv after 30 mins by gamma counting; format: ADME, organism-based, CCRF S-180; conditions: in vivo, 0.5 h
Plasma = experiment: Metabolic stability in mouse plasma at 3.7 MBq after 1 to 2 hrs; format: ADME, cell-free
Spleen [34] = experiment: Biodistribution in mouse S180 cells xenografted Kunming mouse spleen at 370 kBq/0.1 mL, iv after 60 mins by gamma counting; format: ADME, organism-based, CCRF S-180; conditions: in vivo, 1 h
Muscle tissue [35] = experiment: Biodistribution in mouse S180 cells xenografted Kunming mouse muscle at 370 kBq/0.1 mL, iv after 5 mins by gamma counting; format: ADME, organism-based, CCRF S-180; conditions: in vivo
Brain = experiment: Biodistribution in mouse S180 cells xenografted Kunming mouse brain at 370 kBq/0.1 mL, iv after 60 mins by gamma counting; format: ADME, organism-based, CCRF S-180; conditions: in vivo, 1 h
Muscle tissue [36] = experiment: Biodistribution in mouse S180 cells xenografted Kunming mouse muscle at 370 kBq/0.1 mL, iv after 120 mins by gamma counting; format: ADME, organism-based, CCRF S-180; conditions: in vivo, 2 h
Nucleic Acid [37] = experiment: Ratio of drug level in tumor to muscle in mouse S180 cells xenografted Kunming mouse at 370 kBq/0.1 mL, iv after 30 mins by gamma counting; format: ADME, organism-based, CCRF S-180; conditions: in vivo, 0.5 h
Kidney [38] = experiment: Biodistribution in mouse S180 cells xenografted Kunming mouse kidney at 370 kBq/0.1 mL, iv after 120 mins by gamma counting; format: ADME, organism-based, CCRF S-180; conditions: in vivo, 2 h
Liver [39] = experiment: Biodistribution in mouse S180 cells xenografted Kunming mouse liver at 370 kBq/0.1 mL, iv after 60 mins by gamma counting; format: ADME, organism-based, CCRF S-180; conditions: in vivo, 1 h

- Drug uptake (Kidney [1]): 5.04 % ID/g
- Drug uptake (Kidney [2]): 2.58 % ID/g
- Drug uptake (Spleen [3]): 2.15 % ID/g
- Drug uptake (Heart [4]): 4.06 % ID/g
- Ratio (Nucleic Acid [5]): 1.62
- Drug uptake (Blood [6]): 2.95 % ID/g
- Ratio (Nucleic Acid [7]): 1.53
- Drug uptake (Mus musculus [8]): 1.88 % ID/g
- Drug uptake (Heart [9]): 2.59 % ID/g
- Drug uptake (CCRF S-180): 9%
- Drug uptake (Muscle tissue [10]): 3.05 % ID/g
- Ratio (Nucleic Acid [11]): 1.09
- Drug uptake (Liver [12]): 4.02 % ID/g
- Drug uptake (Lung [13]): 3.79 % ID/g
- Drug uptake (Blood [14]): 3.63 % ID/g
- Drug uptake (Lung [15]): 6.61 % ID/g
- Drug uptake (Spleen [16]): 3.42 % ID/g
- Ratio (Nucleic Acid [17]): 1.28
- Ratio (Nucleic Acid [18]): 1.14
- Drug uptake (Mus musculus [19]): 2.95 % ID/g
- Ratio (Nucleic Acid [20]): 0.39
- Ratio (Nucleic Acid [21]): 0.98
- Drug uptake (Muscle tissue [22]): 3.84 % ID/g
- Drug uptake (Mus musculus [23]): 4.37 % ID/g
- Ratio (Nucleic Acid [24]): 1.23
- Drug uptake (Liver [25]): 1.84 % ID/g
- Ratio (Nucleic Acid [26]): 0.59
- Drug uptake (Lung [27]): 3.77 % ID/g
- Drug uptake (Heart [28]): 3.57 % ID/g
- logP [29]: 0.68
- Drug uptake (Heart [30]): 5.53 % ID/g
- Drug uptake (Muscle tissue [31]): 2.31 % ID/g
- Ratio (Nucleic Acid [32]): 0.94
- Drug uptake (Liver [33]): 3.17 % ID/g
- Stability (Plasma): Stable
- Drug uptake (Spleen [34]): 2.82 % ID/g
- Drug uptake (Muscle tissue [35]): 3.99 % ID/g
- Drug uptake (Brain): 1.93 % ID/g
- Drug uptake (Muscle tissue [36]): 2.64 % ID/g
- Ratio (Nucleic Acid [37]): 1.81
- Drug uptake (Kidney [38]): 1.92 % ID/g
- Drug uptake (Liver [39]): 2.45 % ID/g
SMILES: Cc1cc(NCC[18F])n2ncc(C#N)c2n1

- Drug uptake (Kidney [1]): 8.45 % ID/g
- Drug uptake (Kidney [2]): 1.83 % ID/g
- Drug uptake (Spleen [3]): 0.14 % ID/g
- Drug uptake (Heart [4]): 1.16 % ID/g
- Ratio (Nucleic Acid [5]): 12.35
- Drug uptake (Blood [6]): 0.09 % ID/g
- Ratio (Nucleic Acid [7]): 8.69
- Drug uptake (Mus musculus [8]): 2.26 % ID/g
- Drug uptake (Heart [9]): 0.12 % ID/g
- Drug uptake (CCRF S-180): 9%
- Drug uptake (Muscle tissue [10]): 0.89 % ID/g
- Ratio (Nucleic Acid [11]): 0.77
- Drug uptake (Liver [12]): 10.12 % ID/g
- Drug uptake (Lung [13]): 2.6 % ID/g
- Drug uptake (Blood [14]): 0.45 % ID/g
- Drug uptake (Lung [15]): 5.6 % ID/g
- Drug uptake (Spleen [16]): 1.96 % ID/g
- Ratio (Nucleic Acid [17]): 1.57
- Ratio (Nucleic Acid [18]): 0.96
- Drug uptake (Mus musculus [19]): 0.74 % ID/g
- Ratio (Nucleic Acid [20]): 0.43
- Ratio (Nucleic Acid [21]): 2.5
- Drug uptake (Muscle tissue [22]): 2.07 % ID/g
- Drug uptake (Mus musculus [23]): 1.99 % ID/g
- Ratio (Nucleic Acid [24]): 0.88
- Drug uptake (Liver [25]): 2.05 % ID/g
- Ratio (Nucleic Acid [26]): 5.87
- Drug uptake (Lung [27]): 1.19 % ID/g
- Drug uptake (Heart [28]): 2.78 % ID/g
- logP [29]: 0.69
- Drug uptake (Heart [30]): 5.77 % ID/g
- Drug uptake (Muscle tissue [31]): 0.47 % ID/g
- Ratio (Nucleic Acid [32]): 0.8
- Drug uptake (Liver [33]): 7.3 % ID/g
- Stability (Plasma): Stable
- Drug uptake (Spleen [34]): 0.53 % ID/g
- Drug uptake (Muscle tissue [35]): 3.82 % ID/g
- Drug uptake (Brain): 0.08 % ID/g
- Drug uptake (Muscle tissue [36]): 0.28 % ID/g
- Ratio (Nucleic Acid [37]): 1.4
- Drug uptake (Kidney [38]): 0.74 % ID/g
- Drug uptake (Liver [39]): 4.07 % ID/g
SMILES: Cc1cc(NCCNC(=O)c2ccc([N+](=O)[O-])cc2[18F])n2ncc(C#N)c2n1

Source: ChEMBL document CHEMBL1806489, “Synthesis and biological evaluation of novel F-18 labeled pyrazolo[1,5-a]pyrimidine derivatives: potential PET imaging agents for tumor detection” (Bioorg Med Chem Lett, 2011)
